Read-outs that look alike come from different tables or passages of the source. One block for each compound: values may come before it.
Target: T1, CFTR (Homo sapiens, UniProt P13569, DEL508-508)
T1 construct: endogenous in cells; host or cells: primary human bronchial epithelial cells from CF subjects (F508del/MF-HBE), differentiated at air-liquid interface
Assay: HBE assay: Ussing chamber assay of CFTR-mediated short-circuit currents
Assay type: cell-based
Conditions: for EC50: read-out: HBE EC50
In short: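 CFTR-mediated Isc (μA/cm²) equals the peak response to apical 20 μM forskolin minus the residual after a 20 μM each BPO/GlyH-101/CFTR inhibitor 172 cocktail, recorded in Ussing chambers at Vhold 0 mV, 37 °C, pH 7.4, with 30 μM apical amiloride. Cells were F508del/MF HBE cultures preincubated 18-24 h with corrector (concentration range or 10 μM) plus 1 μM ivacaftor in 20% human serum.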

[1] = Table 11, read-out: HBE Max Activity (%)
[2] = Table 12, read-out: HBE Max Activity (%)
[3] = Table 10, read-out: HBE Max activity (%)
[4] = HBE assay, read-out: HBE Max activity (%)
[5] = Table 12, at 10 μM, read-out: HBE Activity at 10 μM (%)
[6] = Table 13, at 10 μM, read-out: HBE Activity at 10 μM (%)
[7] = Table 13, read-out: HBE Max Activity (%)
[8] = Table 10, at 10 μM, read-out: HBE activity at 10 (μM) (%)

T1 sequence (P13569 with tags, fused parts or gaps DEL508-508): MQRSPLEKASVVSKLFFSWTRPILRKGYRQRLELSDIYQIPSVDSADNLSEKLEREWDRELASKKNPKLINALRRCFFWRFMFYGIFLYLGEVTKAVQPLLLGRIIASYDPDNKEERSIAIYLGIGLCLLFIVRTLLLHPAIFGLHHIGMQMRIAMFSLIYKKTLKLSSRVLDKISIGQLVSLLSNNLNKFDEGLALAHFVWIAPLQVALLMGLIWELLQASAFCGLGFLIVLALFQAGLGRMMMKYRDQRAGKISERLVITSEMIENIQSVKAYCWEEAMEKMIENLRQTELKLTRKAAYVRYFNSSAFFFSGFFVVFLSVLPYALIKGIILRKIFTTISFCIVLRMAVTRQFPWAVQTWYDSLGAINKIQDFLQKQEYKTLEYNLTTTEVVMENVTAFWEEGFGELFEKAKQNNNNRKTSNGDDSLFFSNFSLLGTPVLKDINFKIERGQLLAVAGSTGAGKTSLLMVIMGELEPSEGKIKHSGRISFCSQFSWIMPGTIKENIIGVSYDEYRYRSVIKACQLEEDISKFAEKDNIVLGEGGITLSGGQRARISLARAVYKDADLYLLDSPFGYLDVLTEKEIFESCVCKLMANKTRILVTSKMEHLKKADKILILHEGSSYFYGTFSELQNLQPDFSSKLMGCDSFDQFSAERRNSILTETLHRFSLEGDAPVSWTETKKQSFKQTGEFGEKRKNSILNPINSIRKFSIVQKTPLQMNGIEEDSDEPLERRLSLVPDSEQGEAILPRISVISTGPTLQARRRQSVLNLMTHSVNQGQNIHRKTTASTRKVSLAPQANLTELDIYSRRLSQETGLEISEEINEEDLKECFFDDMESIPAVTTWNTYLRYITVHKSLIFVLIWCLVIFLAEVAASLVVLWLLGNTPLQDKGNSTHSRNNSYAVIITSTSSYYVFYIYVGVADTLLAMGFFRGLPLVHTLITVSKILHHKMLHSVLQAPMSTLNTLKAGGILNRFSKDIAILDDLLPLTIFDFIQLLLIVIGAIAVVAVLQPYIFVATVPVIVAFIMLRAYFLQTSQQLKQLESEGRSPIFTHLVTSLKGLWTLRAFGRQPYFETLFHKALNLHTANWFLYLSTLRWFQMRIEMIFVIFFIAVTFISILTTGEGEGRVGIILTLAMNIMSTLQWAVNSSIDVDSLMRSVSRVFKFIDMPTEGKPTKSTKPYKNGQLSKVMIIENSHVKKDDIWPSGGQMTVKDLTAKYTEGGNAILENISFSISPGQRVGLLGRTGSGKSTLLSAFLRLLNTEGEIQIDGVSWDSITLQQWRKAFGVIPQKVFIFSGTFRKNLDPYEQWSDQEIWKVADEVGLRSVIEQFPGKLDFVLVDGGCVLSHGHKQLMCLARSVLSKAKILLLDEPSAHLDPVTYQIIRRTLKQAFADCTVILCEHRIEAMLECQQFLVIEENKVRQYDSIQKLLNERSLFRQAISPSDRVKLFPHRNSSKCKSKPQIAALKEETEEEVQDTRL

Compound: Cc1cccc(C)c1-c1cc2nc(n1)NS(=O)(=O)c1cccc(c1)C(=O)N(CC1CCCN(CCC(C)(C)C)C1=O)[C@H](CC(C)(C)C)CO2 (some centres unmarked) [Compound 654]
- EC50 (Table 11): < 1000 nM
- Emax [1]: > 60%

Compound: Cc1cccc(C)c1-c1cc2nc(n1)NS(=O)(=O)c1cccc(c1)C(=O)N(Cc1cncc(N(C)C3CC4(CCC4)C3)n1)[C@H](CC(C)(C)C)CO2 [Compound 441]
- EC50 (Table 12): < 1000 nM
- Emax [2]: > 60%

Compound: Cc1cccc(C)c1-c1cc2nc(n1)NS(=O)(=O)c1cccc(c1)C(=O)N(Cc1cccc(Cc3nccs3)c1)[C@H](CC(C)(C)C)CO2 [Compound 295]
- EC50 (Table 10): < 1000 nM
- Emax [3]: > 60%

Compound: COCCN(C)c1cncc(CN2C(=O)c3cccc(c3)S(=O)(=O)Nc3nc(cc(-c4c(C)cccc4C)n3)OC[C@H]2CC(C)(C)C)n1 [Compound 895]
- EC50 (Table 11): < 1000 nM
- Emax [1]: > 60%

Compound: Cc1cccc(C)c1-c1cc2nc(n1)NS(=O)(=O)c1cccc(c1)C(=O)N(Cc1nc(C(C)(C)C)cs1)[C@H](CC(C)(C)C)CO2 [Compound 702]
- activation at 10 µM [5]: > 600%

Compound: COCCN(C)c1cccc(CCN2C(=O)c3cccc(c3)S(=O)(=O)Nc3nc(cc(-c4c(C)cccc4C)n3)OC[C@H]2CC(C)(C)C)n1 [Compound 464]
- EC50 (Table 11): < 1000 nM
- Emax [1]: > 60%

Compound: Cc1cccc(C)c1-c1cc2nc(n1)NS(=O)(=O)c1cccc(c1)C(=O)N(CC(=O)NC1CCC13CCC3)[C@H](CC(C)(C)C)CO2 (some centres unmarked) [Compound 173]
- activation at 10 µM [6]: > 600%

Compound: Cc1cccc(C)c1-c1cc2nc(n1)NS(=O)(=O)c1cccc(c1)C(=O)N(Cc1ccnc(N(C)CC(C)(C)C)n1)[C@H](CC(C)(C)C)CO2 [Compound 601]
- EC50 (Table 11): < 1000 nM
- Emax [1]: > 60%

Compound: Cc1cccc(C)c1-c1cc2nc(n1)NS(=O)(=O)c1cccc(c1)C(=O)N(Cc1ccnc(N3CCOCC3)c1)[C@H](CC(C)(C)C)CO2 [Compound 466]
- activation at 10 µM [8]: > 60%
- Emax [3]: > 60%

Compound: Cc1cccc(C)c1-c1cc2nc(n1)NS(=O)(=O)c1cccc(c1)C(=O)N(CC(=O)N1CCCCC1)[C@H](CC(C)(C)C)CO2 [Compound 200]
- activation at 10 µM [6]: > 600%

Compound: COCCN1CCC(CN2C(=O)c3cccc(c3)S(=O)(=O)Nc3nc(cc(-c4c(C)cccc4C)n3)OC[C@H]2CC(C)(C)C)C1=O (some centres unmarked) [Compound 639]
- EC50 (Table 11): < 1000 nM
- Emax [1]: > 60%

Compound: Cc1cccc(C)c1-c1cc2nc(n1)NS(=O)(=O)c1cccc(c1)C(=O)N(Cc1cncc(N(C)CC(C)(C)C)n1)[C@H](C(C)C)CO2 [Compound 694]
- EC50 (Table 12): < 1000 nM
- Emax [2]: > 60%

Compound: Cc1cccc(C)c1-c1cc2nc(n1)NS(=O)(=O)c1cccc(c1)C(=O)N(Cc1ccc(C3CCCCC3)nc1)[C@H](CC(C)(C)C)CO2 [Compound 882]
- activation at 10 µM [5]: > 600%

Compound: CCC1CCC(NC(=O)CN2C(=O)c3cccc(c3)S(=O)(=O)Nc3nc(cc(-c4c(C)cccc4C)n3)OC[C@H]2CC(C)(C)C)CC1 (some centres unmarked) [Compound 192]
- activation at 10 µM [6]: > 600%

Compound: Cc1cccc(C)c1-c1cc2nc(n1)NS(=O)(=O)c1cccc(c1)C(=O)N(CC(=O)N1CCOCC1(C)C)[C@H](CC(C)(C)C)CO2 [Compound 214]
- activation at 10 µM [6]: > 600%

Compound: Cc1cccc(C)c1-c1cc2nc(n1)NS(=O)(=O)c1cccc(c1)C(=O)N(Cc1cccc(-n3ccc(C(C)(C)C)n3)n1)[C@H](CC(C)(C)C)CO2 [Compound 470]
- Emax [3]: > 60%

Compound: Cc1cc(N2CCC(C)(C)C2)cnc1CN1C(=O)c2cccc(c2)S(=O)(=O)Nc2nc(cc(-c3c(C)cccc3C)n2)OC[C@H]1CC(C)(C)C [Compound 1135]
- EC50 (Table 13): < 1000 nM
- Emax [7]: > 60%

Compound: COCCN(CC(C)(C)C)c1cncc(CN2C(=O)c3cccc(c3)S(=O)(=O)Nc3nc(cc(-c4c(C)cccc4C)n3)OC[C@H]2CC(C)(C)C)n1 [Compound 1367]
- EC50 (HBE assay): < 1000 nM
- Emax [4]: > 60%

Compound: COCCN(c1cccc(CN2C(=O)c3cccc(c3)S(=O)(=O)Nc3nc(cc(-c4c(C)cccc4C)n3)OC[C@H]2CC(C)(C)C)n1)C(C)C [Compound 564]
- EC50 (Table 12): < 1000 nM
- Emax [2]: > 60%

Compound: Cc1cccc(C)c1-c1cc2nc(n1)NS(=O)(=O)c1cccc(c1)C(=O)N(Cc1cnc(N3CCOCC3)s1)[C@H](CC(C)(C)C)CO2 [Compound 693]
- activation at 10 µM [5]: 30 to 60%

Compound: Cc1cccc(C)c1-c1cc2nc(n1)NS(=O)(=O)c1cccc(c1)C(=O)N(Cc1coc(C(C)C)n1)[C@H](CC(C)(C)C)CO2 [Compound 703]
- EC50 (Table 12): < 1000 nM
- Emax [2]: > 60%

Compound: Cc1cccc(C)c1-c1cc2nc(n1)NS(=O)(=O)c1cccc(c1)C(=O)N(Cc1ccccc1-c1c[nH]nc1C(F)(F)F)[C@H](CC(C)(C)C)CO2 [Compound 304]
- activation at 10 µM [8]: > 60%

Compound: Cc1cccc(C)c1-c1cc2nc(n1)NS(=O)(=O)c1cccc(c1)C(=O)N(Cc1ccc(C3COC(C)(C)C3)cn1)[C@H](CC(C)(C)C)CO2 (some centres unmarked) [Compound 1062]
- activation at 10 µM [6]: > 600%

Compound: Cc1cccc(C)c1-c1cc2nc(n1)NS(=O)(=O)c1cccc(c1)C(=O)N(Cc1ccccc1-c1cn[nH]c1)[C@H](CC(C)(C)C)CO2 [Compound 147, (11R)-6-(2,6-dimethylphenyl)-11-(2,2-dimethylpropyl)-12-{[2-(1H-pyrazol-4-yl)phenyl]methyl}-9-oxa-2λ^6-thia-3,5,12,19-tetraazatricyclo[12.3.1.14,8]nonadeca-1(17),4,6,8(19),14(18),15-hexaene-2,2,13-trione]
- EC50 (Table 10): < 1000 nM
- Emax [3]: > 60%

Compound: COC[C@H]1CCCN1c1cncc(CN2C(=O)c3cccc(c3)S(=O)(=O)Nc3nc(cc(-c4c(C)cccc4C)n3)OC[C@H]2CC(C)(C)C)n1 [Compound 274]
- EC50 (Table 12): < 1000 nM
- Emax [2]: > 60%

Compound: CC(C)=C(C)c1ccnc(CN2C(=O)c3cccc(c3)S(=O)(=O)Nc3nc(cc(-c4c(C)cccc4C)n3)OC[C@H]2CC(C)(C)C)n1 [Compound 555]
- activation at 10 µM [5]: > 600%

Compound: Cc1cccc(C)c1-c1cc2nc(n1)NS(=O)(=O)c1cccc(c1)C(=O)N(Cc1ncc(C(C)(C)C)s1)[C@H](CC(C)(C)C)CO2 [Compound 174]
- activation at 10 µM [5]: > 600%

Compound: Cc1cccc(C)c1-c1cc2nc(n1)NS(=O)(=O)c1cccc(c1)C(=O)N(Cc1ccc(C(=O)O)cn1)[C@H](CC(C)(C)C)CO2 [Compound 247]
- activation at 10 µM [6]: 30 to 60%

Compound: Cc1cccc(C)c1-c1cc2nc(n1)NS(=O)(=O)c1cccc(c1)C(=O)N(Cc1cccc(Br)n1)[C@H](CC(C)(C)C)CO2 [Compound 992]
- activation at 10 µM [6]: > 600%

Second part, the compound after the results:

- EC50 (HBE assay): < 1000 nM
- Emax [4]: > 60%
Compound: Cc1cccc(C)c1-c1cc2nc(n1)NS(=O)(=O)c1cccc(c1)C(=O)N(Cc1ncc(OCC(C)C)cn1)[C@H](CC(C)(C)C)CO2 [Compound 1396]

- EC50 (HBE assay): < 1000 nM
- Emax [4]: > 60%
Compound: Cc1cccc(C)c1-c1cc2nc(n1)NS(=O)(=O)c1cccc(c1)C(=O)N(Cc1ncc(OC3CCC3)cc1F)[C@H](CC(C)C)CO2 [Compound 1370]

- EC50 (Table 13): < 1000 nM
- Emax [7]: > 60%
Compound: Cc1cccc(C)c1-c1cc2nc(n1)NS(=O)(=O)c1cccc(c1)C(=O)N(Cc1ncc(C3CC4(C3)CC(C)(C)C4)cn1)[C@H](CC(C)(C)C)CO2 [Compound 162]

- activation at 10 µM (HBE assay, 10 μM, read-out: HBE Activity at 10 μM (%)): > 60%
- EC50 (HBE assay): < 1000 nM
- Emax [4]: > 60%
Compound: Cc1cccc(C)c1-c1cc2nc(n1)NS(=O)(=O)c1cccc(c1)C(=O)N(Cc1ncc(N3CC(C)(F)C3)cn1)[C@H](CC(C)(C)C)CO2 [Compound 1503]

- EC50 (Table 12): < 1000 nM
- Emax [2]: > 60%
Compound: COC[C@@H]1CCCN1c1cnc(CN2C(=O)c3cccc(c3)S(=O)(=O)Nc3nc(cc(-c4c(C)cccc4C)n3)OC[C@H]2CC(C)(C)C)nc1 [Compound 571]

- EC50 (HBE assay): < 1000 nM
Compound: CO[C@H]1C[C@@H](Oc2cnc(CN3C(=O)c4cccc(c4)S(=O)(=O)Nc4nc(cc(-c5c(C)cccc5C)n4)OC[C@H]3CC(C)C)nc2)C1 (stereo in doubt) [Compound 1462]

- Emax [3]: > 60%
Compound: Cc1cccc(C)c1-c1cc2nc(n1)NS(=O)(=O)c1cccc(c1)C(=O)N(Cc1ccn(C(C)C)n1)[C@H](CC(C)(C)C)CO2 [Compound 480]

- EC50 (Table 12): < 1000 nM
- Emax [2]: > 60%
Compound: Cc1cccc(C)c1-c1cc2nc(n1)NS(=O)(=O)c1cccc(c1)C(=O)N(Cc1cnc(C3CCOCC3)cn1)[C@H](CC(C)C)CO2 [Compound 240]

- EC50 (HBE assay): < 1000 nM
- Emax [4]: > 60%
Compound: CCOc1cnc(CN2C(=O)c3cccc(c3)S(=O)(=O)Nc3nc(cc(-c4c(C)cccc4C)n3)OC[C@H]2CC2(C(F)(F)F)CC2)nc1 [Compound 1490]

- Emax [3]: > 60%
Compound: Cc1cccc(C)c1-c1cc2nc(n1)NS(=O)(=O)c1cccc(c1)C(=O)N(Cc1ncc(N(C)C)cn1)[C@H](CC(C)(C)C)CO2 [Compound 1072]

- EC50 (HBE assay): < 1000 nM
- Emax [4]: > 60%
Compound: Cc1cccc(C)c1-c1cc2nc(n1)NS(=O)(=O)c1cccc(c1)C(=O)N(Cc1ncc(OC3CCC3)cc1F)[C@H](CC1CC1)CO2 [Compound 1468]

- EC50 (HBE assay): 1000 to 3000 nM
- Emax [4]: > 60%
Compound: Cc1cccc(C)c1-c1cc2nc(n1)NS(=O)(=O)c1cccc(c1)C(=O)N(Cc1ncc(OC3CC(C)(C)C3)cn1)[C@H](CC(C)C)CO2 [Compound 1423]

- EC50 (HBE assay): < 1000 nM
- Emax [4]: > 60%
Compound: Cc1cccc(C)c1-c1cc2nc(n1)NS(=O)(=O)c1cccc(c1)C(=O)N(Cc1ncc(OC3CCC3)cn1)[C@H](CC1CCC1)CO2 [Compound 1426]

- EC50 (Table 11): < 1000 nM
- Emax [1]: > 60%
Compound: Cc1cccc(C)c1-c1cc2nc(n1)NS(=O)(=O)c1cccc(c1)C(=O)N(Cc1ncc(C3CCOCC3)cn1)[C@H](CC(C)(C)C)CO2 [Compound 634]

- activation at 10 µM [5]: > 600%
Compound: Cc1cccc(C)c1-c1cc2nc(n1)NS(=O)(=O)c1cccc(c1)C(=O)N(Cc1nccc(N(C)C(C)C)n1)[C@H](CC(C)C)CO2 [Compound 552]

Source: US20240150377A1, “MODULATORS OF CYSTIC FIBROSIS TRANSMEMBRANE CONDUCTANCE REGULATOR” (VERTEX PHARMACEUTICALS INCORPORATED, priority 2020, published 2024)
